# Measurements reported in patent US10143696B2, “Methods and compositions for decreasing gastric emptying” (priority 2015, dated 2018).
# “Also recorded” adds a separate entry of the source.
# What was measured:
# Assay type in all cases: in vivo, rat
# Sprague-Dawley rats [1] = experiment: Gastrointestinal transit, charcoal meal assay; conditions: for dosage level with significant effect on stomach weight / stomach weight: charcoal meal assay; for stomach weight: vs vehicle treated animals; for gastrointestinal transit (% small intestinal transit): charcoal meal, 60 minutes pretreatment, vs vehicle
# Experimental: Small intestinal transit was measured based on a known method which involved the oral administration of a charcoal meal (Gmerek et al. (1986). “Independent central and peripheral mediation of morphine-induced inhibition of gastrointestinal transit in rats.” J Pharmacol Exp Ther 236(1): 8-13). Rats were fasted with free access to water for 18 hours. Test compound or vehicle was dosed prior to oral administration of a charcoal slurry containing activated charcoal, flour and water in a ratio of 1:2:7.5 (10 ml/kg orally). One hour after receiving the charcoal slurry, rats were euthanized by CO2 asphyxiation. The stomach and GI tract was excised from each animal. Whole stomach weight was recorded and the length of the small intestine (cm) (stomach to cecum) and the distance (cm) to the leading edge of charcoal was measured. Small intestinal transit data are expressed as a percentage of the distance traveled (i.e. % small intestinal transit=(distance charcoal traveled)/(total length of small intestine (stomach to cecum)×100). Pretreatment times were determined on the basis of pharmacokinetic data (not shown) and were as follows: Compound A, 60 minutes, Compound C, 60 minutes; carbamazepine, 60 minutes. Morphine was administered with a pretreatment time of 30 mins based on previous experience.
# Sprague-Dawley rats [2] = experiment: Gastric emptying of a test meal in rats
# Experimental: Rats were fasted overnight (16-18 hours) with free access to water. The next morning, compound was administered and animals were individually housed in bedding-free cages with pre-weighed food available ad libitum and access to water for 2 hours. The water and food were then removed and the remaining food was re-weighed. Gastric emptying of the ingested meal was assessed 4 hours later. Animals were euthanized by CO2 inhalation followed by thoracotomy. The abdominal cavity was opened, the pylorus and cardia were clamped and the stomach was removed. The excised stomach was weighed and then opened along the greater curvature, rinsed with tap water, lightly dried and re-weighed. The amount of food in the stomach (grams) was estimated based on the difference between the total weight of the stomach plus its contents and the weight of the stomach after the contents were removed. The meal ingested (food intake) was determined by the difference between pre- and post-feeding weight at the end of the 2 hour period. Gastric emptying during the 4 hour experiment is represented as: Gastric emptying=[1−(gastric content/food intake)]×100. Gastric Secretion
# Male, Sprague-Dawley rats (weighing between 229-264 g each and 4 rats per test group) were fasted overnight (19 hours). The rats were then orally administered 10 mg/kg, 30 mg/kg or 100 mg/kg of Compound A with a 0.5% MC or Capryol:Solutol:Polyethyleneglycol (CSP) vehicle or with a 0.5% MC or CSP vehicle alone. The rats were then placed in individual, bedding-free cages and allowed ad libitium access to pre-weighed food and water for two hours. The food and water were then removed and the food was reweighed. Gastric emptying was then assessed four hours later by euthanizing the rats and analyzing the stomach and stomach contents. […] Data are represented as the means+the standard error of the means (S.E.M). % Gastric Emptying in 4 hours=(1−(gastric content/food intake))×100. […] Data are represented as the means+S.E.M.
# Male, Sprague-Dawley rats (weighing between 235-268 g each and 4-6 rats per test group) were fasted overnight (19 hours). The rats were then subcutaneously administered 10 mg/kg, 30 mg/kg or 100 mg/kg of carbamazepine (Compound B) with a 25% HPBCD vehicle or with a 25% HPBCD vehicle alone. Some test animals were not dosed (i.e., naïve). The rats were then placed in individual, bedding-free cages and allowed ad libitium access to pre-weighed food and water for two hours. The food and water were then removed and the food was reweighed. […] Data are represented as the means+S.E.M. % Gastric Emptying in 4 hours=(1−(gastric content/food intake))×100.
# Male, Sprague-Dawley rats (weighing between 238-274 g each and 6 rats per test group) were fasted overnight (19 hours). The rats were then orally administered 30 mg/kg, 100 mg/kg or 300 mg/kg of carbamazepine (Compound B) with a 0.5% MC vehicle or with a 0.5% MC vehicle alone. The rats were then placed in individual, bedding-free cages and allowed ad libitium access to pre-weighed food and water for two hours. The food and water were then removed and the food was reweighed. […] Data are represented as the means+S.E.M. % Gastric Emptying in 4 hours=(1−(gastric content/food intake))×100.
# Male, Sprague-Dawley rats (weighing between 235-276 g each and 4-6 rats per test group) were fasted overnight (19 hours).
# Sprague-Dawley rats [3] = experiment: Gastric secretion volume and pH in fasted rats; conditions: lansoprazole 30 mg/kg orally, alone (Example 17)
# Experimental: Gastric section and acidity was assessed by direct measurement in fasted animals (Melo et al. (2006). “Effect of acid secretion blockade on acute gastric mucosal lesions induced by Tityus serrulatus scorpion toxin in anaesthetized rats.” Toxicon 48(5): 543-549). Rats were fasted with free access to water for 24 hours on wire inserts without bedding. The next day, all rats were dosed orally with 0.5% MC (5 ml/kg) to remove any residual stomach contents and test compound or vehicle was administered. The animals were water deprived for 3 hours, anesthetized with isoflurane (5% in O2), and a laparotomy was conducted followed by tight ligation of the pylorus and cardia. After ligation, the stomach was removed and the rat was immediately euthanized by decapitation. The stomach was opened along the greater curvature and gastric fluid collected into Eppendorf tubes and centrifuged (5 min at 10×1000 g). pH was determined by pipetting gastric fluid directly onto an indicator stick (Whatman, Panpeha Plus, pH0-14). Data are represented as the mean volume and mean pH.
# Male, Sprague-Dawley rats (weighing between 254-270 g each and 6 rats per test group) were fasted overnight (24 hours) on wire inserts without bedding. The rats were first orally dosed with 0.5% MC vehicle and then subcutaneously injected with 3 mg/kg or 10 mg/kg of Compound A with a 25% HPBCD vehicle or with a 25% HPBCD vehicle alone. The test animals were water deprived for 3 hours and then anesthetized with isoflurane and the pylorus and cardia were tightly ligated. The stomachs were then removed and the rats were euthanized. The gastric fluid was removed from the stomachs and collected in eppendorf tubes by cutting along the greatest curvature and spun in a centrifuge. Gastric secretion data were analyzed by a one-way ANOVA using a Bonferroni Multiple Comparison test, where *P<0.05 and **P<0.01 as compared to the appropriate vehicle. Data are represented as the means+S.E.M. PH data were analyzed by a one-way ANOVA using Dunnett's Multiple Comparison Test. Data are represented as the means+S.E.M.
# This Example measured volume and pH of gastric secretion three hours post subcutaneous administration of 10 mg/kg of Compound A. The animals were water deprived during this time.
# [4] = p.o. 30, 100, 300 mg/kg, 0.5% MC vehicle (Example 5)
# [5] = s.c. 10, 30, 100 mg/kg, 25% HPBCD vehicle (Example 4)
# [6] = comparison at equal or similar dosages, routes and vehicles
# [7] = p.o. 10 mg/kg and 30 mg/kg, 0.5% MC vehicle (Example 6)
# [8] = p.o. 100 mg/kg and 300 mg/kg, 0.5% MC vehicle (Example 7)
# [9] = p.o. 100 mg/kg, 0.5% MC vehicle (Example 6)
# [10] = s.c. 10, 30, 100 mg/kg, 25% HPBCD vehicle (Example 6)
# [11] = i.p. 10, 30, 100 mg/kg, 25% HPBCD vehicle (Example 8)
smiles,measurement,setting,value
"NC(=O)N1c2ccccc2C=Cc2ccccc21 [Compound B, carbamazepine, reference compound]",dosage level with significant effect on stomach weight,Sprague-Dawley rats [1],30 mg/kg
same,stomach weight,Sprague-Dawley rats [1],statistically significant increase in stomach weight
same,gastrointestinal transit (% small intestinal transit),Sprague-Dawley rats [1],No statistically significant decrease in gastrointestinal transit; also recorded: decreasing trend
same,"percent of gastric inhibition, oral 0.5% MC compared with subcutaneous 25% HPBCD","Sprague-Dawley rats [2]; equal dosage, Examples 4 and 5",numerically more potent
same,% Gastric Emptying in 4 hours,Sprague-Dawley rats [2]; [4],inhibits gastric emptying
same,food intake,Sprague-Dawley rats [2]; [4],reduces food intake
same,stomach weight,Sprague-Dawley rats [2]; [4],increases stomach weight
same,stomach weight,"Sprague-Dawley rats [2]; s.c. 100 mg/kg, 25% HPBCD vehicle (Example 4)",stomach weight increase
same,% Gastric Emptying in 4 hours,Sprague-Dawley rats [2]; [5],inhibits the percent of gastric emptying
same,food intake,Sprague-Dawley rats [2]; [5],food intake decreased
NC(=O)[C@@H]1CC[C@H](c2ccc(OCc3ccccc3F)cc2)N1 [Compound C],dosage level with significant effect on stomach weight,Sprague-Dawley rats [1],100 mg/kg
same,stomach weight,Sprague-Dawley rats [1],statistically significant increase in stomach weight
same,gastrointestinal transit (% small intestinal transit),Sprague-Dawley rats [1],No statistically significant decrease in gastrointestinal transit
same,gastric emptying inhibition potency compared between compounds,Sprague-Dawley rats [2]; [6],least potent
same,% Gastric Emptying in 4 hours,Sprague-Dawley rats [2]; [7],did not affect
same,food intake,Sprague-Dawley rats [2]; [7],reduced food intake
same,stomach weight,Sprague-Dawley rats [2]; [7],did not affect
same,% Gastric Emptying in 4 hours,Sprague-Dawley rats [2]; [8],inhibits gastric emptying
same,stomach weight,Sprague-Dawley rats [2]; [8],increases stomach weight
same,% Gastric Emptying in 4 hours,Sprague-Dawley rats [2]; [9],inhibits the percentage of gastric emptying
same,food intake,Sprague-Dawley rats [2]; [9],reduces food intake
same,stomach weight,Sprague-Dawley rats [2]; [9],increases stomach weight
same,food intake,"Sprague-Dawley rats [2]; p.o. 10-300 mg/kg, 0.5% MC vehicle (Example 7)",reduces food intake
same,% Gastric Emptying in 4 hours,Sprague-Dawley rats [2]; [10],did not inhibit the percentage of gastric emptying
same,food intake,Sprague-Dawley rats [2]; [10],decreased
same,stomach weight,Sprague-Dawley rats [2]; [10],decreased
O=S(=O)(Nc1nncs1)c1cc(Cl)c(Oc2ccc(C(F)(F)F)cc2-c2ccnnc2)cc1F [Compound D],gastric emptying inhibition potency compared between compounds,Sprague-Dawley rats [2]; [6],greater gastric emptying inhibition potency than Compounds B and C
same,stomach weight,"Sprague-Dawley rats [2]; i.p. 10 mg/kg and 100 mg/kg, 25% HPBCD vehicle (Example 8)",increases stomach weight
same,% Gastric Emptying in 4 hours,Sprague-Dawley rats [2]; [11],inhibits gastric emptying
same,food intake,Sprague-Dawley rats [2]; [11],reduces food intake
"Cc1c(OCC(F)(F)F)ccnc1C[S+]([O-])c1nc2ccccc2[nH]1 (centres unmarked) [Lansoprazole, lansoprazole, reference compound]",pH of gastric secretion,Sprague-Dawley rats [3],increase the pH
same,volume of gastric secretion,Sprague-Dawley rats [3],did not affect volume of gastric secretion
"NC1=N[C@H](O)[C@H]2[C@H]3O[C@]4(O)O[C@@H]([C@@H](O)[C@@]2(N1)[C@@H]4O)[C@]3(O)CO [TTX, tetrodotoxin, reference compound]",gastric emptying inhibition potency compared between compounds,"Sprague-Dawley rats [2]; rat, in vivo",comparable to that achieved by 30 mg/kg of Compound A administered orally
same,% Gastric Emptying in 4 hours,"Sprague-Dawley rats [2]; rat, in vivo, sc",inhibits gastric emptying; also recorded: statistically significant decrease in gastric emptying
same,food intake,"Sprague-Dawley rats [2]; rat, in vivo, sc",reduces food intake; also recorded: dose dependent decrease in food intake
"CN1CC[C@]23c4c5ccc(O)c4O[C@H]2[C@@H](O)C=C[C@H]3[C@H]1C5 [morphine, reference compound]",gastrointestinal transit,"Sprague-Dawley rats [1]; rat, in vivo",less than 35%
same,stomach weight (average),"Sprague-Dawley rats [1]; rat, in vivo",over 7 g
"COc1cc2nc(N3CCN(C(=O)C4CCCO4)CC3)nc(N)c2cc1OC (centres unmarked) [terazosin, reference compound]",% Gastric Emptying in 4 hours,"Sprague-Dawley rats [2]; rat, in vivo",Neither terazosin nor atenolol alone had a significant effect
